The record followed here is paper PMC2817922, “Inhibitory Activity of Marine Sponge-Derived Natural Products against Parasitic Protozoa” (Marine Drugs, 2010).

Structures are written as SMILES. Converted amounts (≈) assume the structure as drawn. Read-outs that look alike come from different tables or passages of the source.

For series [1], the system named is T. cruzi Tulahuen strain C2C4. Nature of the series: Activity against Trypanosoma cruzi (intracellular amastigotes in L6 cells, beta-galactosidase/CPRG). The series is classed as cell-based. The note with it: for IC50: Trypanosoma cruzi, TULAHUEN, Myoblast, in Rattus norvegicus, 96 h, intracellular amastigotes in L6 rat skeletal myoblasts, Tulahuen C2C4, 96 h. Here is the method: Rat skeletal myoblasts (L6 cells) were seeded in 96-well microtitre plates at 2000 cells/well in 100 μL RPMI 1640 medium with 10% FBS and 2 mM L-glutamine. After 24 h the medium was removed and replaced by 100 μL per well containing 5000 trypomastigote forms of T. cruzi Tulahuen strain C2C4 containing the β-galactosidase (Lac Z) gene. After 48 h, the medium was removed from the wells and replaced by 100 μL fresh medium with or without a serial drug dilution of seven 3-fold dilution steps covering a range from 90 to 0.123 μg/mL. After 96 h of incubation, the plates were inspected under an inverted microscope to assure growth of the controls and sterility. Then, the substrate CPRG/Nonidet (50 μL) was added to all wells. A color reaction developed within 2–6 h and could be read photometrically at 540 nm. Data were transferred into the graphic programme Softmax Pro (Molecular Devices), which calculated IC50 values. Benznidazole was the reference drug used.

Series [2] relates to Trypanosoma brucei rhodesiense, STIB 900 strain. Briefly: Activity against Trypanosoma brucei rhodesiense (Alamar Blue). The note with it: read-out: IC50 Trypanosoma b. rhodesiense. The series is classed as cell-based. Here is the method: Trypanosoma brucei rhodesiense, STIB 900 strain, and the standard drug, melarsoprol, were used for the assay. This stock was isolated in 1982 from a human patient in Tanzania and after several mouse passages cloned and adapted to axenic culture conditions. Minimum Essential Medium (50 μL) supplemented with 25 mM HEPES, 1g/L additional glucose, 1% MEM non-essential amino acids (100x), 0.2 mM 2-mercaptoethanol, 1 mM Na-pyruvate and 15% heat inactivated horse serum was added to each well of a 96-well microtiter plate. Serial drug dilutions of seven 3-fold dilution steps covering a range from 90 to 0.123 μg/mL were prepared. Then 10^4 bloodstream forms of T. b. rhodesiense STIB 900 in 50 μL was added to each well and the plate incubated at 37 °C under a 5% CO2 atmosphere for 72 h. 10 μL Alamar Blue (resazurin, 12.5 mg in 100 mL double-distilled water) was then added to each well and incubation continued for a further 2–4 h. Then, the plates were read with a Spectramax Gemini XS microplate fluorometer (Molecular Devices Cooperation, Sunnyvale, CA, USA) using an excitation wavelength of 536 nm and an emission wavelength of 588 nm. Data were analyzed using the microplate reader software Softmax Pro (Molecular Devices Cooperation, Sunnyvale, CA, USA).

Series [3] is described as follows: Cytotoxicity against L6 cells (Alamar Blue). The format is cell-based, rat. Here is the method:
Assays were performed in 96-well microtiter plates, each well containing 100 μL of RPMI 1640 medium supplemented with 1% L-glutamine (200 mM) and 10% fetal bovine serum, and 4 × 10^4 L6 cells (a […] cell line derived from rat skeletal myoblasts). Serial drug dilutions of seven 3-fold dilution steps covering a range from 90 to 0.123 μg/mL were prepared. After 72 h of incubation, the plates were inspected under an inverted microscope to assure growth of the controls and sterile conditions. Ten μL of Alamar Blue solution was then added to each well and the plates incubated for another 2 h. Then the plates were read with a Spectramax Gemini XS microplate fluorometer using an excitation wavelength of 536 nm and an emission wavelength of 588 nm. Data were analysed using the microplate reader software Softmax Pro. Podophyllotoxin was the reference drug used.
In general terms: Resazurin is reduced to fluorescent resorufin, in cell work by metabolically active cells.

Another series relates to P. falciparum K1 strain. Nature of the series: Activity against Plasmodium falciparum ([3H]-hypoxanthine incorporation). The series is classed as cell-based. The settings on record: for IC50: Plasmodium falciparum. On the procedure:
In vitro activity against erythrocytic stages of P. falciparum was determined by a modified [^3H]-hypoxanthine incorporation assay, using the chloroquine- and pyrimethamine-resistant K1 strain and the standard drug […]. Briefly, parasite cultures incubated in RPMI 1640 medium with 5% Albumax (without hypoxanthine) were exposed to serial drug dilutions in microtiter plates. After 48 h of incubation at 37°C in a reduced oxygen atmosphere, 0.5 μCi ^3H-hypoxanthine was added to each well. Cultures were incubated for a further 24 h before they were harvested onto glass-fiber filters and washed with distilled water. The radioactivity was counted using a Betaplate™ liquid scintillation counter (Wallac, Zurich). […] IC50 values were calculated from the sigmoidal inhibition curves using Microsoft Excel. Chloroquine was the reference drug used.

In series [4] the test system is L. donovani strain MHOM/ET/67/L82. Briefly: Activity against Leishmania donovani axenic amastigotes (Alamar Blue). The settings on record: for IC50: Leishmania donovani, axenic amastigotes, MHOM/ET/67/L82, 72 h. The series is classed as cell-based. Here is the method: Amastigotes of L. donovani strain MHOM/ET/67/L82 were grown in axenic culture at 37 °C in SM medium at pH 5.4 supplemented with 10% heat-inactivated fetal bovine serum under an atmosphere of 5% CO2 in air. One hundred microlitres of culture medium with 10^5 amastigotes from axenic culture with or without a serial drug dilution were seeded in 96-well microtitre plates. Serial drug dilutions covering a range from 90 to 0.123 μg/mL were prepared. After 72 h of incubation the plates were inspected under an inverted microscope to assure growth of the controls and sterile conditions. 10 μL of Alamar Blue (12.5 mg resazurin dissolved in 100 mL distilled water) were then added to each well and the plates incubated for another 2 h. Then, the plates were read with a Spectramax Gemini XS microplate fluorometer using an excitation wavelength of 536 nm and an emission wavelength of 588 nm. Data were analyzed using the software Softmax Pro (Molecular Devices Cooperation, Sunnyvale, CA, USA). Decrease of fluorescence (=inhibition) was expressed as percentage of the fluorescence of control cultures and plotted against the drug concentrations. From the sigmoidal inhibition curves the IC50 values were calculated. Miltefosine was used as reference drug.

Setting [5] is: bloodstream forms, STIB 900, 72 h, average of at least two independent assays in duplicates.
Where [6] appears, read: K1, erythrocytic stages, K1 strain resistant to chloroquine and pyrimethamine, read-out: IC50 Plasmodium falciparum.

One may read the IC50 as the concentration at which inhibition is half-maximal. For `CC(C)=CCC/C(C)=C/CC/C(C)=C/CC/C(C)=C/CCc1ccoc1` [Compound 1, furospinulosin-1], the IC50 in series [1] was over 90 µg/mL; in series [2] (setting [5]), 27.4 µg/mL (≈ 77.4 µM); in the series with P. falciparum K1 strain (setting [6]), 11.2 µg/mL (≈ 31.5 µM); in series [4], 14.2 µg/mL (≈ 40 µM). The IC50 at 72 h in series [3] (rat) is over 90 µg/mL.
`CC(C)=CCC/C(C)=C/CC/C(C)=C/CC/C(C)=C/CC/C(C)=C/CCc1ccoc1` [Compound 2, furospinulosin-2]: the IC50 in series [1] was over 90 µg/mL; in series [2] (setting [5]), 16.2 µg/mL (≈ 38.2 µM); in the series on P. falciparum K1 strain (setting [6]) it was 3.51 µg/mL (≈ 8.3 µM); in series [4], over 90 µg/mL. Also, the IC50 at 72 h in series [3] (rat) is 34 µg/mL (≈ 80.4 µM).
As for `C/C(=C\CCc1ccoc1)C[C@@H](O)C[C@@H](C)CCCc1ccoc1` [Compound 3, furospongin-1], the IC50 in series [1] turned out to be 17.5 µg/mL (≈ 52.9 µM); in series [2] (setting [5]) it was 13.9 µg/mL (≈ 42.2 µM); in the series on P. falciparum K1 strain (setting [6]), 14 µg/mL (≈ 42.4 µM); in series [4], 4.8 µg/mL (≈ 14.5 µM). This compound had a 50% inhibitory concentration (IC50) at 72 h in series [3] (rat) of 27.4 µg/mL (≈ 83.1 µM).
As to `COC(=O)/C(C)=C/CC/C(=C/CC/C(C)=C/CC/C(C)=C/CCc1ccoc1)C(=O)O` [Compound 4, furospongin-4], the IC50 is over 90 µg/mL in series [1], 17.9 µg/mL (≈ 41.9 µM) in series [2] (setting [5]), 7.51 µg/mL (≈ 17.5 µM) in the series on P. falciparum K1 strain (setting [6]) and over 90 µg/mL in series [4]. The IC50 at 72 h in series [3] (rat) was over 90 µg/mL.
On to `CC(C)=CCC/C(C)=C/CC/C(C)=C/CC/C(C)=C/CC/C(C)=C/CC/C(C)=C/CCC1(C)C=Cc2cc(O)ccc2O1` (centres unmarked) [Compound 6, 2-(hexaprenylmethyl)-2-methylchromenol], for which the concentration for half-maximal inhibition (IC50) in series [1] is over 90 µg/mL; in series [2] (setting [5]) it was 41.4 µg/mL (≈ 70.8 µM); in the series with P. falciparum K1 strain (setting [6]), over 20 µg/mL; in series [4], 15.9 µg/mL (≈ 27.2 µM). The IC50 at 72 h in series [3] (rat) is over 90 µg/mL.
Consider `CC(C)=CCC/C(C)=C/CC/C(C)=C/CC/C(C)=C/CC/C(C)=C/CC/C(C)=C/CC/C(C)=C/CC/C(C)=C/Cc1cc(C(=O)O)ccc1O` [Compound 7, 4-hydroxy-3-octaprenylbenzoic acid], for which the IC50 in series [1] was over 90 µg/mL; in series [2] (setting [5]), 13.1 µg/mL (≈ 19.2 µM); with P. falciparum K1 strain (setting [6]), about 1 µg/mL (≈ 1.46 µM); in series [4], 5.6 µg/mL (≈ 8.2 µM). In series [3] (rat), this compound showed a half-maximal inhibitory concentration (IC50) at 72 h of 86.5 µg/mL (≈ 127 µM).
Turning to `CC(C)=CCC/C(C)=C/CC/C(C)=C/CC/C(C)=C/Cc1cc(CC(=O)O)ccc1O` [Compound 8, 4-hydroxy-3-tetraprenylphenylacetic acid], the IC50 was over 90 µg/mL in series [1], 0.6 µg/mL (≈ 1.41 µM) in series [2] (setting [5]), 3.3 µg/mL (≈ 7.77 µM) in the series with P. falciparum K1 strain (setting [6]) and over 90 µg/mL in series [4]. Besides, in series [3] (rat), the IC50 at 72 h is over 90 µg/mL.
Take `CC(C)=CCC/C(C)=C/CC/C(C)=C/CC/C=C(\C)CC/C=C(\C)CCC=C(C)C` [Compound 10, squalene]: the IC50 in series [1] was over 90 µg/mL; in series [2] (setting [5]) it was 15 µg/mL (≈ 36.6 µM); in the series with P. falciparum K1 strain (setting [6]), about 1 µg/mL (≈ 2.43 µM); in series [4], over 90 µg/mL. Also, the IC50 at 72 h in series [3] (rat) was 34.9 µg/mL (≈ 84.9 µM).
As for `CC(=O)O[C@H]1C=C2C(=O)OCC2[C@@]2(C)C1[C@@]1(C)CCCC(C)(C)C1C[C@@H]2OC(C)=O` (some centres unmarked) [Compound 11, dorisenone D], the IC50 in series [1] is over 90 µg/mL; in series [2] (setting [5]) it was 2.47 µg/mL (≈ 5.9 µM); in the series with P. falciparum K1 strain (setting [6]) it was 0.43 µg/mL (≈ 1.03 µM); in series [4], over 90 µg/mL. The compound also came in with an IC50 at 72 h in series [3] (rat) of 3.93 µg/mL (≈ 9.39 µM). The “selectivity index (IC50 against L6 cells/IC50 against parasite)” value in the series with P. falciparum K1 strain (towards the malaria parasite (P. falciparum)) is over 9.
Regarding `CC(=O)O[C@H]1C=C2C(=O)OCC2[C@]2(C)CCC3C(C)(C)CCC[C@]3(C)C12` (stereo partly drawn) [Compound 12, 11β-acetoxyspongi-12-en-16-one], the IC50 in series [1] was about 4 µg/mL (≈ 11.1 µM); in series [2] (setting [5]), 4.14 µg/mL (≈ 11.5 µM); with P. falciparum K1 strain (setting [6]) it was about 1 µg/mL (≈ 2.77 µM); in series [4], 0.75 µg/mL (≈ 2.08 µM). Moreover, in series [3] (rat), the IC50 at 72 h amounted to 3.32 µg/mL (≈ 9.21 µM). In series [4] (for L. donovani), the “selectivity index (IC50 against L6 cells/IC50 against parasite)” value was determined as 4.4.
Take `CC(=O)O[C@H]1CC2[C@@]3(C)CCCC(C)(C)C3CC[C@@]2(C)C2CC=C3CO[C@@H](O)C3[C@]21C` (stereo partly drawn) [Compound 13, 12-epi-deoxoscalarin]: the IC50 was 40.4 µg/mL (≈ 93.9 µM) in series [1], 55.2 µg/mL (≈ 128 µM) in series [2] (setting [5]), 7.48 µg/mL (≈ 17.4 µM) in the series on P. falciparum K1 strain (setting [6]) and over 90 µg/mL in series [4]. Besides, in series [3] (rat), the IC50 at 72 h worked out at 60.3 µg/mL (≈ 140 µM).
In the case of `OCCc1c[nH]c2ccccc12` [Compound 14, tryptophol], the IC50 in series [1] was 49.4 µg/mL (≈ 306 µM); in series [2] (setting [5]), 5.89 µg/mL (≈ 36.5 µM); in the series with P. falciparum K1 strain (setting [6]) it was 5.08 µg/mL (≈ 31.5 µM); in series [4], 9.6 µg/mL (≈ 59.6 µM). Besides, in series [1] (ratio of IC50 values), the “fold less active against T. cruzi than against T. b. rhodesiense” value stood at 8 fold. In addition, the IC50 at 72 h in series [3] (rat) was 63.5 µg/mL (≈ 394 µM).
Compound `O=C(Cn1ccnc1[N+](=O)[O-])NCc1ccccc1` [benznidazole, reference compound] displayed an IC50 in series [1] of 0.359 µg/mL (≈ 1.38 µM).
As for `CCN(CC)CCCC(C)Nc1ccnc2cc(Cl)ccc12` (centres unmarked) [chloroquine, reference compound], in the series with P. falciparum K1 strain (K1, read-out: IC50 Plasmodium falciparum), the IC50 came out at 0.056 µg/mL (≈ 0.175 µM).
For `Nc1nc(N)nc(Nc2ccc([As]3SCC(CO)S3)cc2)n1` (centres unmarked) [melarsoprol, reference compound], the IC50 in series [2] (72 h) was 0.003 µg/mL.
`CCCCCCCCCCCCCCCCOP(=O)([O-])OCC[N+](C)(C)C` [miltefosine, reference compound] registered an IC50 in series [4] of 0.2 µg/mL (≈ 0.491 µM).
For the compound `COc1cc([C@@H]2c3cc4c(cc3[C@H](O)[C@H]3COC(=O)[C@H]23)OCO4)cc(OC)c1OC` [podophyllotoxin, reference compound], the IC50 at 72 h in series [3] (L6 cells (rat skeletal myoblasts), 72 h, read-out: IC50 Cytotoxicity) came to 0.004 µg/mL (≈ 0.00965 µM).
